Paper PMC10526274, “Epithelial-Immune Cell Crosstalk Determines the Activation of Immune Cells In Vitro by the Human Cathelicidin LL-37 at Low Physiological Concentrations” (Biomolecules, 2023)

System: NKT cells (CD3+CD56+)
Assay: Multiplex xMAP cytokine levels, NKT cells alone stimulated with LL-37
Format: cell-based, human
Settings: 1 µM LL-37, 24 h
Description: NKT cells (CD3^+CD56^+) were isolated from PBMCs using the FACSVantageDiVa cell sorter (Becton Dickinson, Franklin Lakes, NJ, USA), equipped with 405, 488, and 643 nm lasers (Supporting Materials, Figure S1). PBMCs were re-suspended in the FACS buffer (PBS containing 0.5% BSA and 2 mM EDTA) and labeled with monoclonal mouse anti-human CD3-APC (clone UCHT1, Beckman Coulter, Pasadena, CA, USA) and mouse anti-human CD56-PE/Cy7 (clone N901, Beckman Coulter) antibodies to isolate NKT cells (CD3^+CD56^+).
Sorted NKT cells were expanded by stimulation with Dynabead Human T-Expander CD3/CD28 magnetic beads (Gibco) in RPMI-1640 medium containing 10% FBS, 1X antibiotic–antimycotic solution, 100 U/mL IL-2 (Gibco), and 50 ng/mL IL-7 (Sci-Store). CD3/CD28 magnetic beads were subsequently removed with a magnet. Expanded NKT cells were washed out of the cytokines and cryopreserved.
Primary blood monocytes, moDCs, and NKT cells were seeded in 600 µL of complete RPMI-1640 with 10% Human AB serum (Capricorn Scientific, Ebsdorfergrund, Germany) and supplemented with 1X antibiotic–antimycotic solution into the wells of 24-well plates at a density of 3–7 × 10^5 cells/well 24 h before the experiment. Then, 24 h later, the medium in each well was replaced by the same medium with 1 µM of LL-37 for the sample wells or fresh medium alone for the control wells, and the permeable inserts with the Caco-2 monolayer with TEER > 400 Ω × cm^2, containing 400 μL of the complete medium in their apical chamber, were immediately placed into the appropriate wells. Also, inserts with the Caco-2 monolayer were placed in cell-free wells of 24-well plates in the same complete RPMI-1640 medium with or without 1 µM of LL-37 as controls. Cells were kept in a CO2-incubator (5% CO2, 37 °C) for another 24 h. Then, culture medium from each well was collected, centrifuged, and frozen at −70 °C.
To quantitatively evaluate a broad spectrum of analytes secreted by human cell cultures at the protein level, multiplex xMAP technology was used. The chosen panel (cat. #HCYTA-60K-PX48, Merck, Darmstadt, Germany) included 48 different magnetic beads with primary antibodies to the following cytokines, chemokines, and growth factors: CCL11 (Eotaxin-1), Flt-3 ligand, CX3CL1 (Fractalkine), sCD40L, FGF-2, EGF, GROα, GM-CSF, G-CSF, IL-1RA, IL-1α, IL-1β, IL-2, IL-3, IL-4, IL-5, IL-6, IL-7, CXCL8 (IL-8), IL-9, IL-10, IL-12p40, IL-12p70, IL-13, IL-15, IL-17A (CTLA8), IL-17E (IL-25), IL-17F, IL-18, IL-22, IL-27, IFNγ, IFNα2, CXCL10 (IP-10), CCL2 (MCP-1), CCL7 (MCP-3), CCL22 (MDC), CXCL9 (MIG), CCL3 (MIP-1α), CCL4 (MIP-1β), CCL5 (RANTES), M-CSF, PDGF-AA, PDGF-AB/BB, TNFα, TNFβ, TGFα, and VEGF-A. The assay was performed in accordance with the manufacturer’s instructions with overnight incubation of the samples with primary antibodies, and the plate was read on a MAGPIX System (Merck) using the xPONENT 4.2 software (Merck). The acquired fluorescence data were analyzed by the MILLIPLEX Analyst v5.1 software (Merck), which realized an advanced curve-fitting algorithm. Levels of the analytes in control and experimental samples were compared with an unpaired two-sample t-test using GraphPad Prism v.8.0.1 (GraphPad Software, Inc., San Diego, CA, USA). The p-values ≤ 0.05 were considered significant.

Substance: LL-37: the only human cathelicidin, host defense antimicrobial peptide of 37 a.a. residues, produced by solid-phase peptide synthesis
- IL-8 level (n=2, control 0.21): 2.37 pg/mL
- IL-10 level (n=2, control 1.55): <1.35↓ pg/ml
- IL-2 level (n=2, control 1.66): 1.16 pg/mL
- FLT-3L level (n=2, control 1.72): 1.67 pg/mL
- EGF level (n=2, control 2.26): 2.26 pg/mL
- IL-6 level (n=2, control 3.12): 1.89 pg/mL
- MCP-3 level (n=2, control 4.7): 4.7 pg/mL
- MDC level (n=2, control 5.04): 2.93 pg/mL
- IL-9 level (n=2, control 7.06): 7.45 pg/mL
- MIG level (n=2, control 10.31): 7.16 pg/mL
- IL-1a level (n=2, control 11.32): 13.27 pg/mL
- IL-27 level (n=2, control 13.33): 29.42 pg/mL
- IFNg level (n=2, control 13.41): 12.33 pg/mL
- TNFa level (n=2, control 14.53): 13.36 pg/mL
- sCD40L level (n=2, control 18.13): <8.15↓ pg/ml
- FGF-2 level (n=2, control 29.25): 21.45 pg/mL
- IP-10 level (n=2, control 56.07): 50.77 pg/mL
- M-GSF level (n=2, control 66.65): 60.35 pg/mL
- MIP-1b level (n=2, control 67.9): 58.14 pg/mL
- GM-CSF level (n=2, control 76.24): 76.06 pg/mL
- IL-13 level (n=2, control 251.23): 237.88 pg/mL
- IL-5 level (n=2, control 323.09): 285.93 pg/mL
- RANTES level (n=2, control 1182): 1237 pg/mL
- MIP-1a level (n=2, control 1355): 1113 pg/mL
- IL-7 level (n=2, control <0.30): <0.30↓ pg/ml
- IL-18 level (n=2, control <0.30): <0.30↓ pg/ml
- IL-3 level (n=2, control <0.55): <0.55↓ pg/ml
- GROa level (n=2, control <0.66): <0.66↓ pg/ml
- TGF-a level (n=2, control <0.68): <0.68↓ pg/ml
- IL-17A level (n=2, control <0.70): <0.70↓ pg/ml
- IL-1b level (n=2, control <0.74): <0.74↓ pg/ml
- IL-4 level (n=2, control <0.87): <0.87↓ pg/ml
- IL-1RA level (n=2, control <0.93): <0.93↓ pg/ml
- TNFb level (n=2, control <0.93): 1 pg/mL
- VEGFa level (n=2, control <1.26): <1.26↓ pg/ml
- MCP-1 level (n=2, control <1.35): <1.35↓ pg/ml
- IL-15 level (n=2, control <1.54): <1.54↓ pg/ml
- IL-12 (p70) level (n=2, control <1.71): <1.71↓ pg/ml
- G-CSF level (n=2, control <2.32): <2.32↓ pg/ml
- Eotaxin level (n=2, control <2.91): <2.91↓ pg/ml
- IL-12 (p40) level (n=2, control <3.33): <3.33↓ pg/ml
- IFNa2 level (n=2, control <3.88): <3.88↓ pg/ml
- PDGF-AB/BB level (n=2, control <5.00): <5.00↓ pg/ml
- PDGF-AA level (n=2, control <6.49): <6.49↓ pg/ml
- IL-22 level (n=2, control <6.61): <6.61↓ pg/ml
- IL-17F level (n=2, control <12.19): <12.19↓ pg/ml
- Fractalkine level (n=2, control <18.09): <18.09↓ pg/ml
- IL-17E/IL-25 level (n=2, control <19.43): <19.43↓ pg/ml
